Test results reported in the supplement of paper PMC10307832.

What was measured:
Test in all cases: relative viability (nuclei count vs DMSO), 5 days (fraction); higher = more cells survive
NCI-H1734 = tested on: NCI-H1734
Outline: (§1)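 After 5 days of treatment, lung cancer cells in 1536-well plates were fixed and stained in a single step (final 0.05% Triton X-100, 1% formaldehyde, 1 ug/ml Hoechst) and their nuclei counted on 4× images. Treatment had been applied by pin tool the day after seeding as one drug alone or as a fixed anchor-drug dose with five library-drug doses (not always all listed) in √10 steps. Relative viability is the nuclei count of treated wells divided by that of vehicle wells, and values are medians of duplicate plates.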

PC-3 [JPC-3] = tested on: PC-3 [JPC-3]
Outline: as §1

NCI-H460 = tested on: NCI-H460
Outline: as §1

HCC-366 = tested on: HCC-366
Outline: as §1

NCI-H1651 = tested on: NCI-H1651
Outline: as §1

LOU-NH91 = tested on: LOU-NH91
Outline: as §1

NCI-H2087 = tested on: NCI-H2087
Outline: as §1

NCI-H2228 = tested on: NCI-H2228
Outline: as §1

ChaGo-K-1 = tested on: ChaGo-K-1
Outline: as §1

NCI-H2170 = tested on: NCI-H2170
Outline: as §1

CAL-12T = tested on: CAL-12T
Outline: as §1

NCI-H1755 = tested on: NCI-H1755
Outline: as §1

UMC-11 = tested on: UMC-11
Outline: as §1

NCI-H1793 = tested on: NCI-H1793
Outline: as §1

NCI-H1944 = tested on: NCI-H1944
Outline: as §1

EPLC-272H = tested on: EPLC-272H
Outline: as §1

RERF-LC-KJ = tested on: RERF-LC-KJ
Outline: as §1

NCI-H1395 = tested on: NCI-H1395
Outline: as §1

HCC-78 = tested on: HCC-78
Outline: as §1

LC-2-ad = tested on: LC-2-ad
Outline: as §1

ABC-1 = tested on: ABC-1
Outline: as §1

LU99A = tested on: LU99A
Outline: as §1

NCI-H3122 = tested on: NCI-H3122
Outline: as §1

NCI-H2405 = tested on: NCI-H2405
Outline: as §1

`Clc1ccc(Nc2nnc(Cc3ccncc3)c3ccccc23)cc1` [Vatalanib] + COc1cccc2cc(-c3nc([C@H]4CC[C@H](C(=O)O)CC4)n4ncnc(N)c34)[nH]c12 [OSI-027] (partner 0.5 µM) showed a relative viability (NCI-H1734; first compound 0.04 µM) of 0.675, a relative viability (NCI-H1734; first compound 0.1265 µM) of 0.463 and a relative viability (NCI-H1734; first compound 0.4 µM) of 0.697. It also gave a relative viability (NCI-H1734; first compound 1.265 µM) of 0.563, a relative viability (NCI-H1734; first compound 4 µM) of 0.589 and a relative viability (PC-3 [JPC-3]; first compound 0.04 µM) of 0.752. The relative viability (PC-3 [JPC-3]; first compound 0.1265 µM) was 0.698, the relative viability (PC-3 [JPC-3]; first compound 0.4 µM) was 0.771 and the relative viability (PC-3 [JPC-3]; first compound 1.265 µM) was 0.733. For the same compound, the relative viability (PC-3 [JPC-3]; first compound 4 µM) was 0.672, the relative viability (NCI-H460; first compound 0.04 µM) was 0.713 and the relative viability (NCI-H460; first compound 0.1265 µM) was 0.703. For the same compound, the relative viability (NCI-H460; first compound 0.4 µM) was 0.655, the relative viability (NCI-H460; first compound 1.265 µM) was 0.65 and the relative viability (NCI-H460; first compound 4 µM) was 0.624. For the same compound, the relative viability (HCC-366; first compound 0.04 µM) was 1.18, the relative viability (HCC-366; first compound 0.1265 µM) was 0.846 and the relative viability (HCC-366; first compound 0.4 µM) was 1.13. It also gave a relative viability (HCC-366; first compound 1.265 µM) of 0.736, a relative viability (HCC-366; first compound 4 µM) of 0.548 and a relative viability (NCI-H1651; first compound 0.04 µM) of 0.751. For the same compound, the relative viability (NCI-H1651; first compound 0.1265 µM) was 0.723, the relative viability (NCI-H1651; first compound 0.4 µM) was 0.662 and the relative viability (NCI-H1651; first compound 1.265 µM) was 0.644. The relative viability (NCI-H1651; first compound 4 µM) was 0.615, the relative viability (LOU-NH91; first compound 0.04 µM) was 0.712 and the relative viability (LOU-NH91; first compound 0.1265 µM) was 0.738. It also gave a relative viability (LOU-NH91; first compound 1.265 µM) of 0.728, a relative viability (LOU-NH91; first compound 4 µM) of 0.625 and a relative viability (NCI-H2087; first compound 0.04 µM) of 0.673. For the same compound, the relative viability (NCI-H2087; first compound 0.1265 µM) was 0.468, the relative viability (NCI-H2087; first compound 0.4 µM) was 0.647 and the relative viability (NCI-H2087; first compound 1.265 µM) was 0.548. The relative viability (NCI-H2087; first compound 4 µM) was 0.564, the relative viability (NCI-H2228; first compound 0.04 µM) was 0.568 and the relative viability (NCI-H2228; first compound 0.1265 µM) was 0.566. For the same compound, the relative viability (NCI-H2228; first compound 0.4 µM) was 0.604, the relative viability (NCI-H2228; first compound 1.265 µM) was 0.589 and the relative viability (NCI-H2228; first compound 4 µM) was 0.504. For the same compound, the relative viability (ChaGo-K-1; first compound 0.04 µM) was 0.589, the relative viability (ChaGo-K-1; first compound 0.1265 µM) was 0.548 and the relative viability (ChaGo-K-1; first compound 0.4 µM) was 0.622. For the same compound, the relative viability (ChaGo-K-1; first compound 1.265 µM) was 0.5, the relative viability (ChaGo-K-1; first compound 4 µM) was 0.594 and the relative viability (NCI-H2170; first compound 0.04 µM) was 0.707. For the same compound, the relative viability (NCI-H2170; first compound 0.1265 µM) was 0.743, the relative viability (NCI-H2170; first compound 0.4 µM) was 0.782 and the relative viability (NCI-H2170; first compound 1.265 µM) was 0.63. It also gave a relative viability (NCI-H2170; first compound 4 µM) of 0.769, a relative viability (CAL-12T; first compound 0.04 µM) of 0.574 and a relative viability (CAL-12T; first compound 0.1265 µM) of 0.523. It also gave a relative viability (CAL-12T; first compound 0.4 µM) of 0.583, a relative viability (CAL-12T; first compound 1.265 µM) of 0.556 and a relative viability (CAL-12T; first compound 4 µM) of 0.581. The relative viability (NCI-H1755; first compound 0.04 µM) was 0.82, the relative viability (NCI-H1755; first compound 0.1265 µM) was 0.747 and the relative viability (NCI-H1755; first compound 0.4 µM) was 0.705. It also gave a relative viability (NCI-H1755; first compound 1.265 µM) of 0.654, a relative viability (NCI-H1755; first compound 4 µM) of 0.634 and a relative viability (UMC-11; first compound 0.04 µM) of 0.461. The relative viability (UMC-11; first compound 0.1265 µM) was 0.487, the relative viability (UMC-11; first compound 0.4 µM) was 0.44 and the relative viability (UMC-11; first compound 1.265 µM) was 0.433. For the same compound, the relative viability (UMC-11; first compound 4 µM) was 0.518, the relative viability (NCI-H1793; first compound 0.04 µM) was 0.268 and the relative viability (NCI-H1793; first compound 0.1265 µM) was 0.226. The relative viability (NCI-H1793; first compound 0.4 µM) was 0.309, the relative viability (NCI-H1793; first compound 1.265 µM) was 0.217 and the relative viability (NCI-H1793; first compound 4 µM) was 0.184. For the same compound, the relative viability (NCI-H1944; first compound 0.04 µM) was 0.42, the relative viability (NCI-H1944; first compound 0.1265 µM) was 0.421 and the relative viability (NCI-H1944; first compound 0.4 µM) was 0.413. The relative viability (NCI-H1944; first compound 1.265 µM) was 0.411, the relative viability (NCI-H1944; first compound 4 µM) was 0.336 and the relative viability (EPLC-272H; first compound 0.04 µM) was 0.268. It also gave a relative viability (EPLC-272H; first compound 0.1265 µM) of 0.259, a relative viability (EPLC-272H; first compound 0.4 µM) of 0.323 and a relative viability (EPLC-272H; first compound 1.265 µM) of 0.301. It also gave a relative viability (EPLC-272H; first compound 4 µM) of 0.303, a relative viability (RERF-LC-KJ; first compound 0.04 µM) of 0.657 and a relative viability (RERF-LC-KJ; first compound 0.1265 µM) of 0.591. It also gave a relative viability (RERF-LC-KJ; first compound 0.4 µM) of 0.588, a relative viability (RERF-LC-KJ; first compound 1.265 µM) of 0.549 and a relative viability (RERF-LC-KJ; first compound 4 µM) of 0.564. The relative viability (NCI-H1395; first compound 0.04 µM) was 0.632, the relative viability (NCI-H1395; first compound 0.1265 µM) was 0.634 and the relative viability (NCI-H1395; first compound 0.4 µM) was 0.597. The relative viability (NCI-H1395; first compound 1.265 µM) was 0.651, the relative viability (NCI-H1395; first compound 4 µM) was 0.604 and the relative viability (HCC-78; first compound 0.04 µM) was 0.318. For the same compound, the relative viability (HCC-78; first compound 0.1265 µM) was 0.37, the relative viability (HCC-78; first compound 0.4 µM) was 0.381 and the relative viability (HCC-78; first compound 1.265 µM) was 0.306. The relative viability (HCC-78; first compound 4 µM) was 0.351, the relative viability (LC-2-ad; first compound 0.04 µM) was 0.935 and the relative viability (LC-2-ad; first compound 0.1265 µM) was 0.865. The relative viability (LC-2-ad; first compound 1.265 µM) was 0.785, the relative viability (LC-2-ad; first compound 4 µM) was 0.826 and the relative viability (ABC-1; first compound 0.04 µM) was 0.444. The relative viability (ABC-1; first compound 0.1265 µM) was 0.512, the relative viability (ABC-1; first compound 1.265 µM) was 0.381 and the relative viability (ABC-1; first compound 4 µM) was 0.486. The relative viability (LU99A; first compound 0.04 µM) was 0.262, the relative viability (LU99A; first compound 0.1265 µM) was 0.282 and the relative viability (LU99A; first compound 0.4 µM) was 0.358. The relative viability (LU99A; first compound 1.265 µM) was 0.307, the relative viability (LU99A; first compound 4 µM) was 0.277 and the relative viability (NCI-H3122; first compound 0.04 µM) was 1.13. For the same compound, the relative viability (NCI-H3122; first compound 0.1265 µM) was 0.982, the relative viability (NCI-H3122; first compound 1.265 µM) was 0.934 and the relative viability (NCI-H3122; first compound 4 µM) was 0.848. It also gave a relative viability (NCI-H2405; first compound 0.04 µM) of 0.665, a relative viability (NCI-H2405; first compound 0.1265 µM) of 0.631 and a relative viability (NCI-H2405; first compound 1.265 µM) of 0.666. It also gave a relative viability (NCI-H2405; first compound 4 µM) of 0.608.
